Read-outs that look alike come from different tables or passages of the source.
Experiments:
[1] = target: RET-V804M (Homo sapiens, UniProt P07949, V804M); assay: RET inhibition experiment (HTRF KinEASE-TK kit), mutant RET-V804M; assay type: biochemical; conditions: for IC50: read-out: The IC50 (nM) for inhibiting V804M
Method: Experimental method: According to the instructions of the HTRF KinEASE-TK kit (Cisbio), the compounds of the present disclosure were tested for their inhibitory effects on the activity of wild-type RET enzyme, mutant RET enzyme (RET-V804M, RET-V804L, and RET-M918T) and fusion-type RET enzyme (RET-CCDCl6). After pre-incubation of different RET enzymes and different concentrations of the test compounds at room temperature for 30 min, a substrate and adenosine triphosphate (ATP) were added to initiate the reaction. After incubation at room temperature for 40 min, TK antibody-cryptate and streptavidin-XL665 were added, and the test was performed after incubation at room temperature for 45 min. With the solvent group (DMSO) as the negative control and the buffer group (without RET enzyme) as the blank control, the relative inhibitory activity percentages (i.e., inhibition rates) of different concentrations of the compounds were computed as per the following formula:
(§1) Relative inhibitory activity percentage=1−(compound group of different concentrations−blank control)/(negative control−blank control)*100%
(§2) The relative inhibitory activity percentages of different concentrations of the compounds were plotted with respect to the compound concentrations, and the curve was fitted according to a four-parameter model to compute the IC50 value as per the following formula:
(§3) y=min+(max−min)/(1+(x/IC50)^(−Hillslope))
(§4) where y is the relative inhibitory activity percentage, max is the maximum value of the fitted curve, min is the minimum value of the fitted curve, x is the logarithmic concentration of the compound, and Hillslope is the slope of the curve.

[2] = target: VEGFR2 (Homo sapiens, UniProt P35968); assay: VEGFR2 inhibition experiment (HTRF KinEASE-TK kit); assay type: biochemical; conditions: read-out: Inhibition rate on VEGFR2; for inhibition at 0.3 µM: 300 nM; for inhibition at 0.03 µM: 30 nM
Chain of VEGFR2 (P35968 20-1356, species assumed): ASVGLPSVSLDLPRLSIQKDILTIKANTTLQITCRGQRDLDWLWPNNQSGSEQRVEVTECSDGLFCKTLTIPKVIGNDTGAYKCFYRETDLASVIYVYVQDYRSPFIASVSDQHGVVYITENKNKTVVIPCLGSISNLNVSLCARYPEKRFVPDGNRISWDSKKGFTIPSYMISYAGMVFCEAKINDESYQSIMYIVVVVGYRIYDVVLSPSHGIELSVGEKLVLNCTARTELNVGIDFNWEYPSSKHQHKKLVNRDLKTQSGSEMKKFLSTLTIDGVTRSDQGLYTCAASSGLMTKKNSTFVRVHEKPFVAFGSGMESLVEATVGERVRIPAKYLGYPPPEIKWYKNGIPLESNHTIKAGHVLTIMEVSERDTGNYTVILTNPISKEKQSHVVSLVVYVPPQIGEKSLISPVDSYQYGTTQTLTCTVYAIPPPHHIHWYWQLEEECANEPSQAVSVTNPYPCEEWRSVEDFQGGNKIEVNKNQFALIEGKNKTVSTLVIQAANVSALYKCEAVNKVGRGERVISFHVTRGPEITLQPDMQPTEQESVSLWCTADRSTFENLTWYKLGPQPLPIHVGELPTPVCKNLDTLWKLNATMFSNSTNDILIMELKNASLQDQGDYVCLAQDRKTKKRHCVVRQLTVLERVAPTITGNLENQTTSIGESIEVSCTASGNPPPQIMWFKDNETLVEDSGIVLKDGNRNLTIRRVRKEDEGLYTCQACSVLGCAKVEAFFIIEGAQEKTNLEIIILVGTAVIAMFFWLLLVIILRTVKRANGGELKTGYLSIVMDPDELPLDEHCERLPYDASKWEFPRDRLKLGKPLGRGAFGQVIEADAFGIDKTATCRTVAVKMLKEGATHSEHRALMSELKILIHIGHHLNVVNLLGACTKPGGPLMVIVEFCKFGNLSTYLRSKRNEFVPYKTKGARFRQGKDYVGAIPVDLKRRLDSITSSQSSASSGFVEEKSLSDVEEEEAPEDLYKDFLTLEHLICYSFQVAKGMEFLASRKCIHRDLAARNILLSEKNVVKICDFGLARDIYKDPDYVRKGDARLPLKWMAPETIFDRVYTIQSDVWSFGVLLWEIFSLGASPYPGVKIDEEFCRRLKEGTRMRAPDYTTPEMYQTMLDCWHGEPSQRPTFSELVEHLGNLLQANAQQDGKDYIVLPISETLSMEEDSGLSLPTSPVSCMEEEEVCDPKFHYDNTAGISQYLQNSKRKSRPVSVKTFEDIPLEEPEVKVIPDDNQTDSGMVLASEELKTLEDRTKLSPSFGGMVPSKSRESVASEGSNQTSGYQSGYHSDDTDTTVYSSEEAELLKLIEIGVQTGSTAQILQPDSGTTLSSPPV
Method: Experimental method: According to the instructions of the HTRF KinEASE-TK kit (Cisbio), the compounds of the present disclosure were tested for their inhibitory effects on the VEGFR2 enzyme activity. After pre-incubation of the VEGFR2 enzyme and different concentrations of test compounds at room temperature for 30 min, a substrate and adenosine triphosphate (ATP) were added to initiate the reaction. After incubation at room temperature for 40 min, TK antibody-cryptate and streptavidin-XL665 were added, and the test was performed after incubation at room temperature for 45 min. With the solvent group (DMSO) as the negative control and the buffer group (without VEGFR2 enzyme) as the blank control, the relative inhibitory activity percentages (i.e., inhibition rates) of different concentrations of the compounds were computed as per the following formula:
as §1, §2, §3, §4

[3] = read-out: Inhibition rate on RET-V804M
[4] = 10 nM (Table 2), read-out: Inhibition rate on RET-V804M

Chain of RET-V804M (P07949 29-1114 V804M): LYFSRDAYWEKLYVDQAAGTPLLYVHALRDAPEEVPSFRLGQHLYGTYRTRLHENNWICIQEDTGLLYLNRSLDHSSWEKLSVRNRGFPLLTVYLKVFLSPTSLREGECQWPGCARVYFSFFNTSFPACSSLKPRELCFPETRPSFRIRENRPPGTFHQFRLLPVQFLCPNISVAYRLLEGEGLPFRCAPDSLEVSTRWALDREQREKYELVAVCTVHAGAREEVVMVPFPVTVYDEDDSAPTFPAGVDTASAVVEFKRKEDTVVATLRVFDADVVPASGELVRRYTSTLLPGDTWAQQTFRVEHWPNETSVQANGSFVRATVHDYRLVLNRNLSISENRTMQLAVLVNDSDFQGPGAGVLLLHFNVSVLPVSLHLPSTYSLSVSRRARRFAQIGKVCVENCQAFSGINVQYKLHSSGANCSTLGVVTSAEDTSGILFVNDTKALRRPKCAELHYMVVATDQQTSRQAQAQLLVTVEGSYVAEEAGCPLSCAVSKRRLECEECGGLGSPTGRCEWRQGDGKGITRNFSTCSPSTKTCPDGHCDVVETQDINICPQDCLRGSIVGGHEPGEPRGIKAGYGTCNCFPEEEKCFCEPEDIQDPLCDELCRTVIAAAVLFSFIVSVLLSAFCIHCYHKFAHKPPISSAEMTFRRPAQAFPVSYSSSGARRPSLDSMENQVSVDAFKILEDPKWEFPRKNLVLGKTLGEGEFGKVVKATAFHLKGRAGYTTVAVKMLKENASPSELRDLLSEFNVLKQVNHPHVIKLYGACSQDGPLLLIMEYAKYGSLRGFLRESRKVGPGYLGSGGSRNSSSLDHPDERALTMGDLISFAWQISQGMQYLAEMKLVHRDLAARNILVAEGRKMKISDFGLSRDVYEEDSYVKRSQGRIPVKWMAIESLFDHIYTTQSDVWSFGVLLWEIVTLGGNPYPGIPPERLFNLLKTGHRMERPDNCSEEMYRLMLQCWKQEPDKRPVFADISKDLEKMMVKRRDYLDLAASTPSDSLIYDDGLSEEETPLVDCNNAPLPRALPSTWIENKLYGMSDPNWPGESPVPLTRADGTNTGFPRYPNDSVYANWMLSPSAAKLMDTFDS

SMILES | inhibition at 0.01 µM [1, 4] | inhibition at 0.1 µM ([2]; 100 nM) | further results
Cc1ccc(CN2C3CC2CN(c2ccc(-c4nc(C)cc(Nc5cc(C)[nH]n5)n4)cn2)C3)cc1 [Compound 80, 6-methyl-N-(5-methyl-1H-pyrazol-3-yl)-2-(6-(6-(4-methylbenzyl)-3,6-diazabicyclo[3.1.1]heptan-3-yl)pyridin-3-yl)pyrimidin-4-amine] | – | – | inhibition at 0.01 µM [1, 3]: 51%; inhibition at 0.1 µM [2]: -10%
Cc1cc(Nc2cc(C)[nH]n2)nc(-c2ccc(N3CC4CC(C3)N4Cc3ccc(-c4cc(F)cnc4C)nc3)nc2)n1 [Compound 8, 2-(6-(6-((5′-fluoro-2′-methyl-[2,3′-dipyridyl]-5-yl)methyl)-3,6-diazabicyclo[3.1.1]heptan-3-yl)pyridin-3-yl)-6-methyl-N-(5-methyl-1H-pyrazol-3-yl)pyrimidin-4-amine] | 46% | – | inhibition at 0.3 µM [2]: 5%
Cc1cnn(-c2ccc(CN3C4CC3CN(c3ccc(-c5nc(C)cc(Nc6cc(C)[nH]n6)n5)cn3)C4)cn2)c1 [Compound 62, 6-methyl-2-(6-(6-((6-(4-methyl-1H-pyrazol-1-yl)pyridin-3-yl)methyl)-3,6-diazabicyclo[3.1.1]heptan-3-yl)pyridin-3-yl)-N-(5-methyl-1H-pyrazol-3-yl)pyrimidin-4-amine] | – | 62% | IC50 [1]: 4.53 ± 1.23 nM
COc1ccc(CN2CCN(c3ccc(-c4nc(C)cc(Nc5cc(C)[nH]n5)n4)cn3)CC2)cc1 [Compound 23, 2-(6-(4-(4-methoxybenzyl)piperazin-1-yl)pyridin-3-yl)-6-methyl-N-(5-methyl-1H-pyrazol-3-yl)pyrimidin-4-amine] | – | – | inhibition at 0.01 µM [1, 3]: 47%; inhibition at 0.1 µM [2]: -10%
Cc1cc(Nc2cc(C)[nH]n2)nc(-c2ccc(N3CC4CC(C3)N4Cc3ccc(-n4cc(F)cn4)cc3)nc2)n1 [Compound 91, 2-(6-(6-(4-(4-fluoro-1H-pyrazol-1-yl)benzyl)-3,6-diazabicyclo[3.1.1]heptan-3-yl)pyridin-3-yl)-6-methyl-N-(5-methyl-1H-pyrazol-3-yl)pyrimidin-4-amine] | 70% | 26% | –
COc1ccc(-c2ccc(CN3C4CC3CN(c3ccc(-c5nc(C)cc(Nc6cc(C)[nH]n6)n5)cn3)C4)cn2)cn1 [Compound 7, 2-(6-(6-((6′-methoxy-[2,3′-dipyridyl]-5-yl)methyl)-3,6-diazabicyclo[3.1.1]heptan-3-yl)pyridin-3-yl)-6-methyl-N-(5-methyl-1H-pyrazol-3-yl)pyrimidin-4-amine] | 46% | 16% | –
Cc1cc(Nc2cc(C)[nH]n2)nc(-c2ccc(N3CC4CC(C3)N4Cc3ccc(-c4cscn4)nc3)nc2)n1 [Compound 129, 6-methyl-N-(5-methyl-1H-pyrazol-3-yl)-2-(6-(6-((6-(thiazol-4-yl)pyridin-3-yl)methyl)-3,6-diazabicyclo[3.1.1]heptan-3-yl)pyridin-3-yl)pyrimidin-4-amine] | 84% | – | inhibition at 0.03 µM [2]: 52%
COc1ccc(F)c(CN2C3CC2CN(c2ccc(-c4nc(C)cc(Nc5cc(C)[nH]n5)n4)cn2)C3)c1 [Compound 96, 2-(6-(6-(2-fluoro-5-methoxybenzyl)-3,6-diazabicyclo[3.1.1]heptan-3-yl)pyridin-3-yl)-6-methyl-N-(5-methyl-1H-pyrazol-3-yl)pyrimidin-4-amine] | – | 4% | inhibition at 0.1 µM ([1]; 100 nM (Table 2), read-out: Inhibition rate on RET-V804M): 84%
Cc1cc(Nc2cc(C)[nH]n2)nc(-c2ccc(N3CC4CC(C3)N4Cc3ccc(-n4ccc(F)n4)nc3)nc2)n1 [Compound 63, 2-(6-(6-((6-(3-fluoro-1H-pyrazol-1-yl)pyridin-3-yl)methyl)-3,6-diazabicyclo[3.1.1]heptan-3-yl)pyridin-3-yl)-6-methyl-N-(5-methyl-1H-pyrazol-3-yl)pyrimidin-4-amine] | 65% | 38% | –
Cc1cc(Nc2cc(C)[nH]n2)nc(-c2ccc(N3CC4CC(C3)N4Cc3ccc(-n4cc5c(n4)CCC5)nc3)nc2)n1 [Compound 25] | – | – | IC50 [1]: 6.29 ± 0.9 nM; inhibition at 0.3 µM [2]: 53%
Cc1cc(Nc2cc(C3CC3)[nH]n2)nc(-c2ccc(N3CC4CC(C3)N4Cc3ccc(-n4cc(F)cn4)nc3)nc2)n1 [Compound 10, N-(5-cyclopropyl-1H-pyrazol-3-yl)-2-(6-(6-((6-(4-fluoro-1H-pyrazol-1-yl)pyridin-3-yl)methyl)-3,6-diazabicyclo[3.1.1]heptan-3-yl)pyridin-3-yl)-6-methylpyrimidin-4-amine] | – | – | IC50 [1]: 3.97 ± 0.3 nM; inhibition at 0.3 µM [2]: 69%
Cc1cc(Nc2cc(C)[nH]n2)nc(-c2ccc(N3CC4CC(C3)N4Cc3ccc(F)cn3)nc2)n1 [Compound 70, 2-(6-(6-((5-fluoropyridin-2-yl)methyl)-3,6-diazabicyclo[3.1.1]heptan-3-yl)pyridin-3-yl)-6-methyl-N-(5-methyl-1H-pyrazol-3-yl)pyrimidin-4-amine] | – | 14% | IC50 [1]: 41.4 ± 3.73 nM
Cc1cc(Nc2cc(C)[nH]n2)nc(-c2ccc(N3C[C@H]4C[C@@H](C3)N4C(C)c3ccc(-n4cc(F)cn4)nc3)nc2)n1 (single isomer, unassigned) [Compound 52-2] | – | – | IC50 [1]: 13 ± 2.34 nM; inhibition at 0.3 µM [2]: 12%
Cc1cc(Nc2cc(C)[nH]n2)nc(-c2ccc(N3CC4CC(C3)N4Cc3ccc(-n4ccc(F)n4)cc3)nc2)n1 [Compound 89, 2-(6-(6-(4-(3-fluoro-1H-pyrazol-1-yl)benzyl)-3,6-diazabicyclo[3.1.1]heptan-3-yl)pyridin-3-yl)-6-methyl-N-(5-methyl-1H-pyrazol-3-yl)pyrimidin-4-amine] | 70% | 16% | –
Cc1cc(Nc2cc(C)[nH]n2)nc(-c2ccc(N3CC4CC(C3)N4Cc3ccc(-n4nccc4OC4CC4)nc3)nc2)n1 [Compound 30, 2-(6-(6-((6-(5-cyclopropoxy-1H-pyrazol-1-yl)pyridin-3-yl)methyl)-3,6-diazabicyclo[3.1.1]heptan-3-yl)pyridin-3-yl)-6-methyl-N-(5-methyl-1H-pyrazol-3-yl)pyrimidin-4-amine] | 88% | – | inhibition at 0.03 µM [2]: 51%
Cc1cc(Nc2cc(C)[nH]n2)nc(-c2ccc(N3CCC(Oc4cncc(F)c4)CC3)nc2)n1 [Compound 29, 2-(6-(4-((5-fluoropyridin-3-yl)oxy)piperidin-1-yl)pyridin-3-yl)-6-methyl-N-(5-methyl-1H-pyrazol-3-yl)pyrimidin-4-amine] | 52% | – | inhibition at 0.3 µM [2]: 47%
Cc1cc(Nc2cc(C)[nH]n2)nc(-c2ccc(N3CC4CC(C3)N4Cc3ccc(-c4cccn4C)nc3)nc2)n1 [Compound 128, 6-methyl-N-(5-methyl-1H-pyrazol-3-yl)-2-(6-(6-((6-(1-methyl-1H-pyrrol-2-yl)pyridin-3-yl)methyl)-3,6-diazabicyclo[3.1.1]heptan-3-yl)pyridin-3-yl)pyrimidin-4-amine] | 48% | 20% | –
Cc1cnn(-c2ccc(CN3C4CC3CN(c3ccc(-c5nc(C)cc(Nc6cc(C)[nH]n6)n5)cn3)C4)cc2)c1 [Compound 88, 6-methyl-2-(6-(6-(4-(4-methyl-1H-pyrazol-1-yl)benzyl)-3,6-diazabicyclo[3.1.1]heptan-3-yl)pyridin-3-yl)-N-(5-methyl-1H-pyrazol-3-yl)pyrimidin-4-amine] | 62% | 32% | –
Cc1cc(Nc2cc(C)[nH]n2)nc(-c2ccc(N3CC4CC(C3)N4Cc3ccc(-n4ccc(CO)n4)nc3)nc2)n1 [Compound 137, (1-(5-((3-(5-(4-methyl-6-((5-methyl-1H-pyrazol-3-yl)-amino)pyrimidin-2-yl)pyridin-2-yl)-3,6-diazabicyclo[3.1.1]heptan-6-yl)methyl)pyridin-2-yl)-1H-pyrazol-3-yl)methanol] | 93% | – | inhibition at 0.03 µM [2]: 26%
Cc1cc(Nc2cc(C)[nH]n2)nc(-c2ccc(N3CC4CC(C3)N4Cc3ccc(-n4cc(F)cn4)nc3)nc2)c1 [Compound 6, 6′-(6-((6-(4-fluoro-1H-pyrazol-1-yl)pyridin-3-yl)methyl)-3,6-diazabicyclo[3.1.1]heptan-3-yl)-4-methyl-N-(5-methyl-1H-pyrazol-3-yl)-[2,3′-dipyridyl]-6-amine] | 83% | -11% | –
Cc1cc(Nc2cc(C)[nH]n2)nc(-c2ccc(N3CC4CC(C3)N4Cc3ccc(-n4cc(F)c(C5CC5)n4)nc3)nc2)n1 [Compound 124, 2-(6-(6-((6-(3-cyclopropyl-4-fluoro-1H-pyrazol-1-yl)pyridin-3-yl)methyl)-3,6-diazabicyclo[3.1.1]heptan-3-yl)pyridin-3-yl)-6-methyl-N-(5-methyl-1H-pyrazol-3-yl)pyrimidin-4-amine] | – | – | IC50 [1]: 10.7 ± 0.98 nM; inhibition at 0.03 µM [2]: 41%

From US20220144847A1, “HETEROCYCLIC COMPOUND, PHARMACEUTICAL COMPOSITION COMPRISING SAME, PREPARATION METHOD THEREFOR, AND USE THEREOF” (Sichuan Kelun-Biotech Biopharmaceutical Co., Ltd., priority 2019, published 2022)
